Experimental data taken from paper PMC8137473, “Preclinical trial of a MAP4K4 inhibitor to reduce infarct size in the pig: does cardioprotection in human stem cell-derived myocytes predict success in large mammals?” (Basic Research in Cardiology, 2021).

System: swine
Assay: pilot physiological study in healthy, chronically instrumented swine
Format: in vivo
Conditions: for LV dP/dtmin: in mmHg/s (unit assumed)
Protocol: Pilot physiological studies were performed in 2 female swine (45 and 85 kg), to confirm the lack of adverse effects from DMX-10001 in healthy myocardium. Animals were chronically instrumented as detailed below. Following a recovery week, animals received the pro-drug DMX-10001, while hemodynamics were recorded. Based on prior pharmacokinetic studies and modeling (Fig. 1b), two different dosing regimens were investigated, a three-step infusion (41 mg/kg/h, 0.5 h + 15.3 mg/kg/h, 2.5 h + 9.8 mg/kg/h, 5 h) versus a logistically simpler two-step approach (60 mg/kg/h, 0.5 h + 17 mg/kg/h, 23.5 h). During infusion of the pro-drug, blood was sampled to measure production of the active form, DMX-5804, by liquid chromatography–mass spectometry (Pharmidex, London, UK) as described.
A chronically instrumented animal received DMX-10001 for 8 h as shown, with a rapid initial infusion then stepwise decreasing concentrations over time. […] HR, heart rate; MAP, mean arterial pressure; CO, cardiac output; SV, stroke volume; SVR, systemic vascular resistance; dP/dtmax, maximal rate of rise in LV pressure; dP/dtmin, maximal rate of fall in LV pressure.
A chronically instrumented animal received DMX-10001 for 24 h as shown, starting with rapid infusion for half an hour then a lower concentration. […] HR, heart rate; MAP, mean arterial pressure; CO, cardiac output; SV, stroke volume; SVR, systemic vascular resistance; dP/dtmax, maximal rate of rise in LV pressure; dP/dtmin, maximal rate of fall in LV pressure.

[1] = animal 1, three-step infusion, 2 min
[2] = animal 1, three-step infusion, 10 min
[3] = animal 1, three-step infusion, 40 min
[4] = animal 1, three-step infusion, 1h
[5] = animal 1, three-step infusion, 2h
[6] = animal 1, three-step infusion, 3h
[7] = animal 1, three-step infusion, 4h
[8] = animal 1, three-step infusion, 6h
[9] = animal 1, three-step infusion, 8h
[10] = animal 1, three-step infusion, 8h 2 min
[11] = animal 1, three-step infusion, 8h 10 min
[12] = animal 1, three-step infusion, 8h 30 min
[13] = animal 1, three-step infusion, Baseline
[14] = animal 2, two-step infusion, 2 min
[15] = animal 2, two-step infusion, 10min
[16] = animal 2, two-step infusion, 30 min
[17] = animal 2, two-step infusion, 40 min
[18] = animal 2, two-step infusion, 2h
[19] = animal 2, two-step infusion, 24h
[20] = animal 2, two-step infusion, 24h 2 min
[21] = animal 2, two-step infusion, 24h 10 min
[22] = animal 2, two-step infusion, 24h 30 min
[23] = animal 2, two-step infusion, 25h
[24] = animal 2, two-step infusion, Baseline

Work on `COCCOc1ccc(-c2cn(-c3ccccc3)c3ncn(COP(=O)(O)O)c(=O)c23)cc1` [DMX-10001] yielded a CO [1] of 11.2 L/min, an HR [1] of 116 bpm and an LV dP/dtmax [1] of 4070 mmHg/s. The MAP [1] was 96 mmHg, the SV [1] was 97 mL and the SVR [1] was 8.6 mmHg/L/min. For the same compound, the “LV dP/dtmin” value [1] was -2280, the CO [2] was 11.1 L/min and the HR [2] was 112 bpm. It also gave an LV dP/dtmax [2] of 3290 mmHg/s, an MAP [2] of 88 mmHg and an SV [2] of 99 mL. For the same compound, the SVR [2] was 7.9 mmHg/L/min, the “LV dP/dtmin” value [2] was -2280 and the CO [3] was 10.1 L/min. It also gave an HR [3] of 105 bpm, an LV dP/dtmax [3] of 4060 mmHg/s and an MAP [3] of 99 mmHg. For the same compound, the SV [3] was 96 mL, the SVR [3] was 9.8 mmHg/L/min and the “LV dP/dtmin” value [3] was -2530. It also gave a CO [4] of 10.7 L/min, an HR [4] of 115 bpm and an LV dP/dtmax [4] of 4040 mmHg/s. It also gave an MAP [4] of 103 mmHg, an SV [4] of 93 mL and an SVR [4] of 9.7 mmHg/L/min. The “LV dP/dtmin” value [4] was -2690, the CO [5] was 11.4 L/min and the HR [5] was 106 bpm. The LV dP/dtmax [5] was 4840 mmHg/s, the MAP [5] was 107 mmHg and the SV [5] was 108 mL. For the same compound, the SVR [5] was 9.4 mmHg/L/min, the “LV dP/dtmin” value [5] was -3270 and the CO [6] was 13.0 L/min. The HR [6] was 120 bpm, the LV dP/dtmax [6] was 6030 mmHg/s and the MAP [6] was 117 mmHg. For the same compound, the SV [6] was 108 mL, the SVR [6] was 9.0 mmHg/L/min and the “LV dP/dtmin” value [6] was -3330. For the same compound, the CO [7] was 12.0 L/min, the HR [7] was 113 bpm and the LV dP/dtmax [7] was 5260 mmHg/s. The MAP [7] was 120 mmHg, the SV [7] was 106 mL and the SVR [7] was 10 mmHg/L/min. The “LV dP/dtmin” value [7] was -3020, the CO [8] was 12.9 L/min and the HR [8] was 134 bpm. The LV dP/dtmax [8] was 5430 mmHg/s, the MAP [8] was 105 mmHg and the SV [8] was 96 mL. The SVR [8] was 8.2 mmHg/L/min, the “LV dP/dtmin” value [8] was -2830 and the CO [9] was 11.8 L/min. For the same compound, the HR [9] was 111 bpm, the LV dP/dtmax [9] was 5020 mmHg/s and the MAP [9] was 95 mmHg. The SV [9] was 106 mL, the SVR [9] was 8.0 mmHg/L/min and the CO [10] was 11.1 L/min. The HR [10] was 105 bpm, the LV dP/dtmax [10] was 4550 mmHg/s and the MAP [10] was 92 mmHg. For the same compound, the SV [10] was 106 mL, the SVR [10] was 8.3 mmHg/L/min and the “LV dP/dtmin” value [10] was -2820. The CO [11] was 11.4 L/min, the HR [11] was 105 bpm and the LV dP/dtmax [11] was 4730 mmHg/s. It also gave an MAP [11] of 102 mmHg, an SV [11] of 109 mL and an SVR [11] of 8.9 mmHg/L/min. For the same compound, the “LV dP/dtmin” value [11] was -3300, the CO [12] was 14.3 L/min and the HR [12] was 127 bpm. For the same compound, the LV dP/dtmax [12] was 5740 mmHg/s, the MAP [12] was 101 mmHg and the SV [12] was 113 mL. The SVR [12] was 7.1 mmHg/L/min, the “LV dP/dtmin” value [12] was -3190 and the “LV dP/dtmin” value [9] was -2920. For the same compound, the CO [13] was 11.1 L/min, the HR [13] was 117 bpm and the LV dP/dtmax [13] was 3470 mmHg/s. For the same compound, the MAP [13] was 94 mmHg, the SV [13] was 95 mL and the SVR [13] was 8.5 mmHg/L/min. The “LV dP/dtmin” value [13] was -2500, the CO [14] was 9.7 L/min and the HR [14] was 116 bpm. It also gave an LV dP/dtmax [14] of 5860 mmHg/s, an MAP [14] of 80 mmHg and an SV [14] of 84 mL. For the same compound, the SVR [14] was 8.2 mmHg/L/min, the “LV dP/dtmin” value [14] was -4170 and the CO [15] was 6.9 L/min. The HR [15] was 90 bpm, the LV dP/dtmax [15] was 3400 mmHg/s and the MAP [15] was 83 mmHg. For the same compound, the SV [15] was 76 mL, the SVR [15] was 12.1 mmHg/L/min and the “LV dP/dtmin” value [15] was -3670. The CO [16] was 6.7 L/min, the HR [16] was 92 bpm and the LV dP/dtmax [16] was 3420 mmHg/s. It also gave an MAP [16] of 84 mmHg, an SV [16] of 72 mL and an SVR [16] of 12.7 mmHg/L/min. The “LV dP/dtmin” value [16] was -3430, the CO [17] was 6.1 L/min and the HR [17] was 83 bpm. For the same compound, the LV dP/dtmax [17] was 3680 mmHg/s, the MAP [17] was 90 mmHg and the SV [17] was 73 mL. For the same compound, the SVR [17] was 14.8 mmHg/L/min, the “LV dP/dtmin” value [17] was -3640 and the CO [18] was 7.2 L/min. The HR [18] was 91 bpm, the LV dP/dtmax [18] was 4250 mmHg/s and the MAP [18] was 94 mmHg. For the same compound, the SV [18] was 79 mL, the SVR [18] was 13.1 mmHg/L/min and the “LV dP/dtmin” value [18] was -4120. It also gave a CO [19] of 8.7 L/min, an HR [19] of 107 bpm and an LV dP/dtmax [19] of 4260 mmHg/s. The MAP [19] was 89 mmHg, the SV [19] was 82 mL and the SVR [19] was 10.2 mmHg/L/min. The CO [20] was 9.1 L/min, the HR [20] was 111 bpm and the LV dP/dtmax [20] was 5090 mmHg/s. It also gave an MAP [20] of 72 mmHg, an SV [20] of 82 mL and an SVR [20] of 7.9 mmHg/L/min. For the same compound, the “LV dP/dtmin” value [20] was -3740, the CO [21] was 7.0 L/min and the HR [21] was 87 bpm. For the same compound, the LV dP/dtmax [21] was 3950 mmHg/s, the MAP [21] was 97 mmHg and the SV [21] was 80 mL. The SVR [21] was 13.9 mmHg/L/min, the “LV dP/dtmin” value [21] was -4120 and the CO [22] was 7.7 L/min. It also gave an HR [22] of 92 bpm, an LV dP/dtmax [22] of 4810 mmHg/s and an MAP [22] of 144 mmHg. For the same compound, the SV [22] was 83 mL, the SVR [22] was 18.9 mmHg/L/min and the “LV dP/dtmin” value [22] was -4140. For the same compound, the “LV dP/dtmin” value [19] was -3380, the CO [23] was 9.1 L/min and the HR [23] was 115 bpm. For the same compound, the LV dP/dtmax [23] was 5360 mmHg/s, the MAP [23] was 153 mmHg and the SV [23] was 79 mL. The SVR [23] was 16.8 mmHg/L/min, the “LV dP/dtmin” value [23] was -4460 and the CO [24] was 7.8 L/min. The HR [24] was 101 bpm, the LV dP/dtmax [24] was 3800 mmHg/s and the MAP [24] was 77 mmHg. For the same compound, the SV [24] was 77 mL, the SVR [24] was 10.0 mmHg/L/min and the “LV dP/dtmin” value [24] was -3040. For the same compound, the “adverse effect on hemodynamics or LV function” value (pilot studies of two healthy animals) was “No adverse effect”.
